{"source": "paper PMC6013775", "about": "“Inhibition of the key enzyme of sialic acid biosynthesis by C6-Se modified N-acetylmannosamine analogs” (Chemical Science, 2016)", "key": {"HepG2 cells": {"tested_on": "HepG2 cells", "design": "method as in PMID 1312935", "conditions": "1 mM final concentration; cited from earlier work"}, "[1]": {"molecular_target": "T1, human MNK (N-acetylmannosamine kinase) (Homo sapiens, UniProt Q9Y223)", "T1 construct": "His; made in house; host or cells: Escherichia coli BL21-CodonPlus (DE3)-RIL", "T1 sequence (Q9Y223 406-722 limits assumed)": "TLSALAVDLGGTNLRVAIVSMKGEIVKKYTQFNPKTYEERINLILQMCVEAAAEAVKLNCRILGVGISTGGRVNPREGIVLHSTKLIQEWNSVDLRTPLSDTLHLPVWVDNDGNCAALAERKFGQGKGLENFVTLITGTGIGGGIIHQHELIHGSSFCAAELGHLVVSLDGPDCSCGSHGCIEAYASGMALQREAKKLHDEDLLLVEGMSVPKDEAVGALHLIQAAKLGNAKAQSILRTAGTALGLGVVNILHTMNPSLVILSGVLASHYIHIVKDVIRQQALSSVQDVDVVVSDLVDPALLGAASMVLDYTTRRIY", "assay": "MNK activity, coupled optical assay based on NADH consumption", "assay_type": "biochemical", "conditions": "for IC50: purified human MNK, ManNAc 125 μM, ATP, means ± SEM, read-out: IC50 for MNK inhibition", "protocol": "N-Acetylmannosamine kinase and N-acetylglucosamine kinase expression and […]\nHuman N-acetylmannosamine kinase (MNK) was expressed and purified using an established method.1 Therefore, his-tagged MNK was expressed in BL21-CodonPlus (DE3)-RIL Escherichia coli (Stragene). Purification was performed by Ni-NTA affinity chromatography, and subsequently size exclusion chromatography on a SuperdexTM HighLoad 16/600 column (GE Healthcare). […]\nTo evaluate their purity, protein samples were mixed with SDS-PAGE sample buffer, denatured at 90 °C for 1 min and separated by a 10% SDS-PAGE gel. Proteins were visualized with Coomassie G-250 staining solution (Biorad), and PageRuler Prestained Plus (Biorad) was used as a marker (Figure S1 ).\nFigure S1. SDS-PAGE of His-tagged MNK (His-MNK) and GST-tagged GNK\n(GST-GNK) after affinity chromatography and size exclusion chromatography.\nApparent molecular masses given by the marker are indicated on the left side.\n1 J. Martinez, L. D. Nguyen, S. Hinderlich, R. Zimmer, E. Tauberger, W. Reutter, W. Saenger, H. Fan\n2 W.A. Weihofen, M. Berger, H. Chen, W. Saenger, and S. Hinderlich, J. Mol. Biol., 2006, 364, 388.\n(1 picture or pasted object on this page, not shown here)\nEnzyme activity and inhibition studies using N-acetylmannosamine kinase, N-acetylglucosamine kinase and yeast hexokinase\nEvaluation MNK activity in presence of the compounds 11, 12, 14b, 16b and 18b The effects of compounds 11, 12, 14b, 16b, or 18b on MNK enzyme activity were evaluated using a coupled optical assay. 55 µl reaction mixture contained the following buffers and reagents: 39.5 µl buffer A (65 mM MgCl2, 200 mM Tris-HCl, pH 8.1), 5 µl ATP (50 mM), 3.5 µl NADH (30 mM), 2 µl phosphoenolpyruvate (100 mM), 2 U pyruvate-kinase, 2 U lactate-dehydrogenase, 5 µl ManNAc of varying concentrations. Subsequently, 10 µl of the compounds 11, 12, 14b, 16b and 18b were added in varying concentrations. The reaction was initiated by adding 0.6 µg MNK in 35 µL buffer B (10 mM Tris-HCl, 150 mM NaCl, pH 8.0). Samples were incubated at 37°C. Spectrophotometric measurements of NADH concentration was performed at 340 nm. Results obtained were normalized to blanks, consisting of 55 µl reaction mixture, 10 µl H 2O and 35 µl buffer B without MNK.\nGNK and hexokinase inhibition assays using compound 14b\nTo evaluate the specificity of the inhibitor 14b towards other sugar kinases, we performed further inhibition experiments using human GNK and hexokinase (HK) from yeast (Sigma, H-5000). 39.5 µl Buffer A (see above), 5 µl ATP (50 mM), 3.5 µl NADH (30 mM), 2 µl phosphoenolpyruvate (100 mM), 2 U pyruvate-kinase, 2 U lactate-dehydrogenase, 5 µl GlcNAc (7.5 mM, for GNK experiments), or 5 µl ManNAc (7.5 mM, for GNK experiments), or glucose (5 mM, for HK experiments), and 10 µl 14b (varying concentrations) were mixed with either 1 µg GNK or 0.2 µg HK in 35 µL buffer B. The decrease of NADH was measured in a spectrophotometer […]\n5 mM for HK activity, respectively (Figure S2).\nFigure S2. Inhibition of GNK and HK activity by 14b. Values are means ± SEM of […]"}, "Jurkat cells [2]": {"tested_on": "Jurkat cells", "assay": "Cell surface sialylation, 6'-sialyl-LacNAc by FITC-PSL flow cytometry", "assay_type": "cell-based", "conditions": "72 h"}, "Jurkat cells [3]": {"tested_on": "Jurkat cells", "conditions": "human, 72 h, 100 μM"}, "cell surface sialylation": {"tested_on": "cell surface sialylation", "design": "method as in PMID 25278018", "conditions": "500 μM final concentration in culture medium; cited from earlier work"}, "purified ManNAc kinase": {"tested_on": "purified ManNAc kinase", "design": "method as in PMID 12067740, PMID 15368395, PMID 22343627", "conditions": "5 mM final concentration; cited from earlier work"}, "[4]": {"tested_on": "UDP-GlcNAc-2-epimerase/MNK kinase", "design": "method as in PMID 12067740, PMID 15368395, PMID 22343627", "conditions": "300 μM; cited from earlier work"}}, "note": "“Also recorded” adds a separate entry of the source."}
{"smiles": "CO[C@H]1[C@H](O)[C@@H](CO)OC(O)[C@@H]1NC(C)=O", "note": "(stereo partly drawn) [Compound 1, 3-O-methyl-N-acetyl-glucosamine]", "values": [{"measurement": "reduction of incorporation rate of N-GlcNAc and N-ManNAc into glycoproteins", "setting": "HepG2 cells", "value": 70, "unit": "%"}]}
{"smiles": "CCCC[Se]C[C@H]1OC(O)[C@@H](NC(C)=O)[C@@H](O)[C@@H]1O", "note": "(stereo partly drawn) [Compound 18b]", "values": [{"measurement": "IC50", "setting": "[1]", "value": 1.9, "unit": "mM"}]}
{"smiles": "CC(=O)N[C@@H]1C(OC(C)=O)O[C@H](C[Se][Se]C[C@H]2OC(OC(C)=O)[C@@H](NC(C)=O)[C@@H](OC(C)=O)[C@@H]2OC(C)=O)[C@@H](OC(C)=O)[C@@H]1OC(C)=O", "note": "(stereo partly drawn) [Compound 14a]", "values": [{"measurement": "reduction of 6'-sialyl-LacNAc entity", "setting": "Jurkat cells [2]; 50 μM in cell culture medium", "value": "approximately 85%"}, {"measurement": "reduction of cell viability", "setting": "Jurkat cells [3]", "value": "approximately 70%"}]}
{"smiles": "CC(=O)N[C@@H]1C(O)O[C@H](C[Se]C[C@H]2OC(O)[C@@H](NC(C)=O)[C@@H](O)[C@@H]2O)[C@@H](O)[C@@H]1O", "note": "(stereo partly drawn) [Compound 16b]", "values": [{"measurement": "IC50", "setting": "[1]", "value": 3, "unit": "mM"}]}
{"smiles": "COC1C(O)C(CO)OC(O)C1NC(C)=O", "note": "(stereo not drawn) [Compound 2]", "values": [{"measurement": "cell surface sialylation reduced to", "setting": "cell surface sialylation", "value": 20, "unit": "%"}]}
{"smiles": "CC(=O)N[C@@H]1C(O)O[C@H](CSSC[C@H]2OC(O)[C@@H](NC(C)=O)[C@@H](O)[C@@H]2O)[C@@H](O)[C@@H]1O", "note": "(stereo partly drawn) [Compound 12]", "values": [{"measurement": "fold higher IC50 in comparison to 14b", "setting": "[1]; MNK IC50 ratio", "value": "approximately 500 fold"}, {"measurement": "IC50", "setting": "[1]", "value": 4.2, "unit": "mM"}]}
{"smiles": "CC(=O)NC1C(O)OC(COC(C)=O)C(O)C1O", "note": "(stereo not drawn) [Compound 3, 6-O-Ac-ManNAc]", "values": [{"measurement": "inhibition of the enzyme", "setting": "purified ManNAc kinase", "value": 60, "unit": "%"}]}
{"smiles": "CC(=O)NC1C(OP(=O)(O)OP(=O)(O)OCC(C=O)OC(C=O)n2ccc(=O)[nH]c2=O)OC(CO)C(O)C1O", "note": "(stereo not drawn) [Compound 7, 2′,3′-dialdehydo-UPD-N-acetylglucosamine]", "values": [{"measurement": "inhibition of the enzyme", "setting": "[4]", "value": 93, "unit": "%"}]}
{"smiles": "CC(=O)N[C@@H]1C(OC(C)=O)O[C@H](C[Se]C[C@H]2OC(OC(C)=O)[C@@H](NC(C)=O)[C@@H](OC(C)=O)[C@@H]2OC(C)=O)[C@@H](OC(C)=O)[C@@H]1OC(C)=O", "note": "(stereo partly drawn) [Compound 16a]", "values": [{"measurement": "effect on cell surface sialylation", "setting": "Jurkat cells [2]; tested concentrations up to 50 μM", "value": "no visible effect; also recorded: did not alter cell surface sialylation"}]}
{"smiles": "CC(=O)N[C@@H]1C(O)O[C@H](CS)[C@@H](O)[C@@H]1O", "note": "(stereo partly drawn) [Compound 11]", "values": [{"measurement": "IC50", "setting": "[1]", "value": "> 10", "unit": "mM"}]}
